The source of these data is patent US20250213586A1, “STAT6 INHIBITORS AND USES THEREOF” (Kymera Therapeutics, Inc., priority 2024, published 2025).

Assay [1] has as its target T1, biotinylated truncated STAT6 (123-632)-avi (Homo sapiens, UniProt P42226).
T1 sequence (P42226 123-632 limits assumed): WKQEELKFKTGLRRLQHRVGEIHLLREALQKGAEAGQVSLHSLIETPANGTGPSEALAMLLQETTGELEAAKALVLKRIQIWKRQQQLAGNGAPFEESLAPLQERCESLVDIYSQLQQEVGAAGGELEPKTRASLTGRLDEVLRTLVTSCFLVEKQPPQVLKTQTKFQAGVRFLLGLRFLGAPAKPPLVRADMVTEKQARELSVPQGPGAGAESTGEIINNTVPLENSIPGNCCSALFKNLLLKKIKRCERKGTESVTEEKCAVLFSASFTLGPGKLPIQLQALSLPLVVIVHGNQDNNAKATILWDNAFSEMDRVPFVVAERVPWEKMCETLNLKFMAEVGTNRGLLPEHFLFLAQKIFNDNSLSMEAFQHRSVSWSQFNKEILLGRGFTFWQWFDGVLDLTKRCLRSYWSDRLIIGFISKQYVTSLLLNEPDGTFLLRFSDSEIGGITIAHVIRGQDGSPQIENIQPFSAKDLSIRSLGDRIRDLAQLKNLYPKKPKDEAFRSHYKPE
Briefly: biochemical.

Assay [2] concerns the target T2, STAT6 (Homo sapiens, UniProt P42226).
T2 sequence (P42226 1-847): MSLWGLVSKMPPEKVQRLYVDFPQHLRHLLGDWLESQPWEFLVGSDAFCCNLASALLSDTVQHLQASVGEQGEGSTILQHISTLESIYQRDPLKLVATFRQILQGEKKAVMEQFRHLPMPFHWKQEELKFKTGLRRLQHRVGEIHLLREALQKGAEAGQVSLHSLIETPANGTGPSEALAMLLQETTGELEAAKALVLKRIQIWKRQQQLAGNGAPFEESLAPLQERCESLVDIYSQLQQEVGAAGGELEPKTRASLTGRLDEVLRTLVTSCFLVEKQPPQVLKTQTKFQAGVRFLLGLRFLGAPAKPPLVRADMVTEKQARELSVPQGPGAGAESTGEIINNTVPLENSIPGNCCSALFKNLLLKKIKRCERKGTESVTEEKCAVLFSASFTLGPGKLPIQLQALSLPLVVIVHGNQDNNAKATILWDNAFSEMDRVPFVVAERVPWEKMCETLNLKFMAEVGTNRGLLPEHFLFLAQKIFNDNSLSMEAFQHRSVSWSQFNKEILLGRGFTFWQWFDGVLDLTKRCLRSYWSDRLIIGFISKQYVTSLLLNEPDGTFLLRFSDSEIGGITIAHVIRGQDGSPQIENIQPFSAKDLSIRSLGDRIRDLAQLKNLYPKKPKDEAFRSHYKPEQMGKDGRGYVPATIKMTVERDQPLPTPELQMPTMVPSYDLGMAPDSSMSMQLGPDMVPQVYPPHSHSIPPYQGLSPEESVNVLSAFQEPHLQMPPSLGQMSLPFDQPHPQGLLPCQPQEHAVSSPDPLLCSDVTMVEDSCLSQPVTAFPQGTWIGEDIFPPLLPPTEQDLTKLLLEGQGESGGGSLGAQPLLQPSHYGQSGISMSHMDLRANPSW
Briefly: Phosphorylated STAT6 (pSTAT6) flow cytometry assay in human PBMC, IL-4 stimulated. The assay is classed as cell-based. As to conditions: 1 hour compound, 1 ng/ml IL-4 15 minutes, pSTAT6 in CD19+ B cells, read-out: STAT6 IL4 pSTAT6 assay in PBMC: Average IC50. On the set-up: endogenous in cells; host or cells: human PBMC (CD19+ B cells), IL-4 stimulated. On the procedure:
Example 2. Phosphorylated STAT6 (pSTAT6) Flow Cytometry Assay in Human PBMC
Phosphorylation of STAT6 in human PBMC was quantitatively measured using flow cytometry technology. Human PBMC were seeded in 96-well plates with a density of 0.3 to 0.5 million cells per well in 100 μl fresh media. Compounds were then added to the assay plates with a final top concentration of up to […] in a 1:3 dilution series with total of 9 doses. The assay plates were incubated for 1 hour at 37° C. under 5% CO2. The cells were then stimulated with 1 ng/ml of IL-4 (R&D Systems, Cat #6507-IL) for 15 minutes, followed by fixation for 30 minutes at 4° C. Cells were spun down at 350 g for 5 minutes. The supernatant was removed and cells were washed once with FACS buffer. Cells were permeabilized with 90% MeOH/H2O for 30 minutes at 4° C., followed by one wash with FACS buffer. Non-specific binding were blocked with human Fc for 1 hour at 4° C., followed by one wash with FACS buffer. AF488 conjugated pSTAT6 antibody (BD Biosciences, Cat #612600, 1:100 dilution) and PE conjugated CD19 antibody (BD Biosciences, Cat #341103, 1:50 dilution) diluted in 100 μl FACS buffer was added to each well with overnight incubation at 4° C. Cells were then washed once with FACS buffer and resuspended in 200 μl of FACS buffer for flow cytometry to quantify pSTAT6 in CD19+ B cells. The data was analyzed by GraphPad Prism and the dose dependent pSTAT6 inhibition was fit using the four-parameter inhibitor vs. response nonlinear regression.

The target in assay [3] is T2, STAT6. Briefly: Phosphorylated STAT6 (pSTAT6) flow cytometry assay in human A549 cells. The assay is classed as cell-based. The arrangement: endogenous in cells. The note with it: read-out: STAT6 IL4 pSTAT6 assay in A549 cells: Average IC50.
Description: Example 3. Phosphorylated STAT6 (pSTAT6) Flow Cytometry Assay in Human A549 Cells
Phosphorylation of STAT6 in human A549 cells was quantitatively measured using flow cytometry technology.

Molecules are shown by their SMILES.

For the molecule `Cn1cccc(-c2ccc([C@H]3CCCN(C(=O)CCn4ccnn4)C3)cc2F)c1=O` (single isomer, unassigned) [Compound I-7], the IC50 was 10 to 100 µM in assay [1] and more than 100 µM in assay [2].

As to `Cn1cccc(-c2ccc([C@@H]3CCCN(C(=O)CCn4ccnn4)C3)cc2F)c1=O` (single isomer, unassigned) [Compound I-320], the IC50 in assay [1] is 10 to 100 µM; in assay [2], more than 100 µM.

Consider `O=C(CCn1ccnn1)N1CCC[C@@H](c2ccc(-n3ccccc3=O)c(F)c2)C1` (single isomer, unassigned) [Compound I-1293], for which the IC50 in assay [1] was 10 to 100 µM.

Molecule `O=C(CCn1ccnn1)N1CCC[C@H](c2ccc(-n3ccccc3=O)c(F)c2)C1` (single isomer, unassigned) [Compound I-1294] yielded an IC50 in assay [1] of 10 to 100 µM.

As for `CN1CCN(c2ccc(C3=CCCN(C(=O)CCn4ccnn4)C3)cc2Cl)CC1=O` [Compound I-6], the IC50 in assay [1] and in assay [2] was 10 to 100 µM each time.

In the case of `CN(CC1CCN(c2ccc(-n3ccccc3=O)cc2F)CC1)C(Cc1cccnn1)c1ccc(CO)cc1` (stereo not drawn) [Compound I-121], the IC50 in assay [1] and in assay [2] was more than 100 µM in each case.

Turning to `Cc1cscc1-c1cc(CO)ccc1C(=O)N(C)CC1CCN(c2ccc(-n3ccccc3=O)cc2F)CC1` [Compound I-131], the IC50 is 10 to 100 µM in assay [1] and more than 100 µM in assay [2].

`CN(CC1CCN(c2ccc(-n3ccccc3=O)cc2F)CC1)C(=O)c1ccc(CO)cc1-c1ccsc1` [Compound I-164]: the IC50 in assay [1] is 1 to 10 µM; in assay [2] it was more than 100 µM.

For `CN(CC1CCN(c2ccc(-n3ccccc3=O)cc2)CC1)C(=O)c1ccc(CO)cc1` [Compound I-183], the IC50 in assay [1] was 10 to 100 µM; in assay [2], more than 100 µM.

For `CN(C)C(=O)c1ccc(C2=CCCN(C(=O)CCn3ccnn3)C2)cc1C(N)=O` [Compound I-211], the figures for the IC50 in assay [1] and in assay [2] were 10 to 100 µM and more than 100 µM, respectively.

For the molecule `CN(C)C(=O)c1ccc(C2=CCCN(C(=O)CCn3ccnn3)C2)cc1O` [Compound I-218], the figures for the IC50 in assay [1] and in assay [2] were 10 to 100 µM and more than 100 µM, respectively.

Consider `CN(C)C(=O)c1ccc(C2=CCCN(C(=O)CC3CNc4ccccc4O3)C2)c(C#N)c1` (stereo not drawn) [Compound I-223], for which the results for the IC50 in assay [1] and in assay [2] were 10 to 100 µM and more than 100 µM, respectively.

On to `CN(C)C(=O)c1ccc(C2=CCCN(C(=O)CCn3ccnn3)C2)cc1C#N` [Compound I-230], for which the IC50 in assay [1] and in assay [2] was more than 100 µM throughout.

As for `CN(C)C(=O)c1ccc(N2CCC(CN(C)C(=O)c3ccc(CO)cc3)CC2)c(F)c1` [Compound I-238], the IC50 in assay [1] is 10 to 100 µM; in assay [2], more than 100 µM.

For `CN(C)C(=O)c1ccc2ccc(C3=CCCN(C(=O)CCn4ccnn4)C3)cc2c1` [Compound I-242], the results for the IC50 in assay [1] and in assay [2] were 10 to 100 µM and more than 100 µM, respectively.

As for `COC(=O)COc1cc(C2=CCCN(C(=O)CCn3ccnn3)C2)ccc1C(=O)N(C)C` [Compound I-250], the IC50 in assay [1] was 10 to 100 µM; in assay [2], more than 100 µM.

Turning to `CN(C)C(=O)c1ccc(C2=CCCN(C(=O)CCn3ccnn3)C2)c(O)c1` [Compound I-253], the IC50 in assay [1] was 1 to 10 µM; in assay [2] it was more than 100 µM.

`CN(C)C(=O)c1cc2cc(NC(=O)CCCn3ccnn3)ccc2o1` [Compound I-258]: the IC50 in assay [1] was 10 to 100 µM; in assay [2] it was more than 100 µM.

`COc1cc(C(=O)N(C)C)ccc1C1=CCCN(C(=O)CCn2ccnn2)C1` [Compound I-260]: the IC50 is 1 to 10 µM in assay [1] and more than 100 µM in assay [2].

`CN(C)C(=O)c1cc2cc(NC(=O)CCn3ccnn3)ccc2o1` [Compound I-262]: the figures for the IC50 in assay [1] and in assay [2] were 10 to 100 µM and more than 100 µM, respectively.

As for `CN(C)C(=O)c1ccc(C2=CCCN(C(=O)CCn3ccnn3)C2)cc1` [Compound I-288], the IC50 in assay [1] is 1 to 10 µM; in assay [2] it was more than 100 µM.

For the molecule `CN(C)C(=O)c1cc2cc(C3CCN(C(=O)CCn4ccnn4)C3)ccc2o1` (stereo not drawn) [Compound I-303], the 50% inhibitory concentration (IC50) in assay [1] was 10 to 100 µM; in assay [2], more than 100 µM.

As to `COc1ccccc1-c1cc(Cc2ccccn2)c(F)c(C2=CCCN(C(=O)CCn3ccnn3)C2)c1` [Compound I-1102], the IC50 in assay [1] and in assay [3] was 0.1 to 1 µM throughout.

In the case of `CCc1ccc(-c2cc(C(=O)N3Cc4cnn(CC)c4C3)cc3cc(-c4cccc(C(=O)O)c4C)n(CC4CC4)c23)c(C)n1` [Compound I-1240], the IC50 in assay [1] is 1 to 10 µM.

For the molecule `CCc1ccc(-c2cc(C(=O)N3Cc4cnn(CC)c4C3)cc3cc(-c4cc(C(=O)O)ccc4C)n(CC4CC4)c23)c(C)n1` [Compound I-1246], the IC50 in assay [1] is 1 to 10 µM.

`CNC(=O)c1ccc2c(c1)nc(-c1nc3ccc(F)cc3[nH]1)n2Cc1ccc(CN2CCOCC2)o1` [Compound I-1271] showed an IC50 in assay [1] of 10 to 100 µM.

Consider `CNC(=O)c1ccc2c(c1)nc(-c1cccn1C)n2-c1ccccc1OC(F)F` [Compound I-1272], for which the IC50 in assay [1] was 10 to 100 µM.

`CN(CC1CCN(c2ccc(-n3ccccc3=O)cc2F)CC1)C(=O)c1ccc(OC(F)F)cc1` [Compound I-1273] registered an IC50 in assay [1] of 10 to 100 µM.

Regarding `CN(C)C(=O)c1cnc(-c2ccc(NC(=O)CCn3ccnn3)cc2)[nH]1` [Compound I-1295], the IC50 in assay [1] was in the range of 10 to 100 µM.

Consider `COc1ccccc1-c1cc(-n2ccccc2=O)cc(F)c1N1CCC(CN(C)C(=O)c2ccc(CO)cc2)CC1` [Compound I-1296], for which the IC50 in assay [1] fell in the range of 10 to 100 µM.

Regarding `CN(C)C(=O)c1cc2c([nH]1)CN(C1CCCN(C(=O)CCn3ccnn3)C1)CC2` (stereo not drawn) [Compound I-1297], the IC50 in assay [1] lay in the range of 10 to 100 µM.

Take `CN(C)C(=O)c1ccc(C2=CCCN(C(=O)CC3Oc4ccccc4NC3=O)C2)c(OC(F)(F)F)c1` (stereo not drawn) [Compound I-1298]: in assay [1], the IC50 is 10 to 100 µM.

In turn, `CN(C)C(=O)c1cc2ccc(-c3cnc(CC(=O)Nc4cccc(C(N)=O)c4)s3)c(F)c2[nH]1` [Compound I-1323] came in with an IC50 in assay [1] of 0.1 to 1 µM.

In assay [1], `CN(C)C(=O)c1cc2ccc(C3CCCCN(C(=O)Nc4cccc(C(N)=O)c4)C3)c(F)c2[nH]1` (stereo not drawn) [Compound I-1325] had an IC50 of 10 to 100 µM.

In assay [1], `COc1ccccc1-c1cc(-c2cccc(C(=O)N(C)C)c2)c(F)c2[nH]c(C(=O)N(C)C)cc12` [Compound I-1583] gave an IC50 of 1 to 10 µM.

In assay [1], `O=C(CCn1ccnn1)N1CCC=C(c2ccc(-n3ccccc3=O)cc2)C1` [Compound I-1625] returned an IC50 of 1 to 10 µM.
